Columns and labels:
[1] = system: E.coli strains which do not carry gyr mutation (wild type strains); experiment: Arteether sensitivity of strains without gyr mutation; assay type: cell-based, Escherichia coli
Method: (§1) As a result of this mutation, the said strain is also resistant to a drug called nalidixic acid.
To ascertain the involvement of gyrA mutation, another E.coli strain NK 5819 which is also GyrA″ and nalidixic acid resistant was tested for arteether sensitivity. As expected, strain NK5819 was also sensitive only to a-isomer of arteether. […] The assays for arteether sensitivity was performed by the standard single disk diffusion method (Bauer et al, 1966). As a next step, we isolated gyrA mutants of E.coli strain CA 8000, which is otherwise Gyr+ and nalidixic acid sensitive. The gyrA mutants of CA8000 were isolated as nalidixic acid resistant colonies (20 ug/ml), after mutagenic treatment with NTG ([…]). The isolated CA8000 gyrA mutants were also sensitive only to a isomer of arteether. […] To define precisely the involvement of gyr genes only in the a-arteether sensitivity, we utilised two recombinant clones (pMK 90 and pMK47 containing functional gyr A and gyrB genes respectively) in trans-complementation assays. For this purpose, we mobilized the plasmid clones into the E.coli gyr mutant strains. The resulting transformants were now nalidixic acid sensitive and a-arteether resistant. This constituted the direct evidence supporting our observation that DNA gyrase enzyme alone is involved in conferring a-arteether sensitivity to E.coli strain. […]

E. coli DH5α = experiment: Phenotype of strain (resistance or sensitivity); assay type: cell-based, Escherichia coli; set-up: key to Phenotype: R: resistance; S: sensitivity; settings: for Sensitivity or resistance of the strain (words): E.coli DH5a (gyrA 96; Asp87Asn)
Method: as §1
(§2) To ascertain the involvement of gyrA mutation, another E.coli strain NK 5819 which is also GyrA″ and nalidixic acid resistant was tested for arteether sensitivity. As expected, strain NK5819 was also sensitive only to a-isomer of arteether. […] The assays for arteether sensitivity was performed by the standard single disk diffusion method (Bauer et al, 1966). As a next step, we isolated gyrA mutants of E.coli strain CA 8000, which is otherwise Gyr+ and nalidixic acid sensitive. The gyrA mutants of CA8000 were isolated as nalidixic acid resistant colonies (20 ug/ml), after mutagenic treatment with NTG ([…]). The isolated CA8000 gyrA mutants were also sensitive only to a isomer of arteether. […] To define precisely the involvement of gyr genes only in the a-arteether sensitivity, we utilised two recombinant clones (pMK 90 and pMK47 containing functional gyr A and gyrB genes respectively) in trans-complementation assays. For this purpose, we mobilized the plasmid clones into the E.coli gyr mutant strains. The resulting transformants were now nalidixic acid sensitive and a-arteether resistant. This constituted the direct evidence supporting our observation that DNA gyrase enzyme alone is involved in conferring a-arteether sensitivity to E.coli strain. […] DNA gyrase enzyme is essential for the bacterial growth. This enzyme transiently breaks the DNA strands and introduces negative superhelical turns in an ATP-dependent process. The E.coli DNA gyrase enzyme is a tetramer with two subunits A and B. These two subunits are nalidixic acid and coumermycin sensitive respectively (U.S. Pat. No. 6,127,405 and a co-pending patent).
(§3) The strains of E coli of the investigation, their phenotypes in terms of a-arteether (resistance or sensitivity, superscript R or S) or antibiotic resistance or sensitivity, change in nucleotide position of the gyrase A gene leading to the phenotype, corresponding amino acid change in the protein and the position of amino acid change are being described. Always the phenotype a-arteether resistance is accompanied with quinolone or fluoroquinolone sensitivity and vice versa.

[2] = system: E.coli gyr mutant strains transformed with pMK 90 and pMK47 (functional gyr A and gyrB genes); experiment: Trans-complementation assay; assay type: cell-based, Escherichia coli; settings: gyr mutant strains carrying pMK 90 / pMK47
Method: (§4) To ascertain the involvement of gyrA mutation, another E.coli strain NK 5819 which is also GyrA″ and nalidixic acid resistant was tested for arteether sensitivity. As expected, strain NK5819 was also sensitive only to a-isomer of arteether. […] The assays for arteether sensitivity was performed by the standard single disk diffusion method (Bauer et al, 1966). As a next step, we isolated gyrA mutants of E.coli strain CA 8000, which is otherwise Gyr+ and nalidixic acid sensitive. The gyrA mutants of CA8000 were isolated as nalidixic acid resistant colonies (20 ug/ml), after mutagenic treatment with NTG ([…]). The isolated CA8000 gyrA mutants were also sensitive only to a isomer of arteether. […] To define precisely the involvement of gyr genes only in the a-arteether sensitivity, we utilised two recombinant clones (pMK 90 and pMK47 containing functional gyr A and gyrB genes respectively) in trans-complementation assays. For this purpose, we mobilized the plasmid clones into the E.coli gyr mutant strains. The resulting transformants were now nalidixic acid sensitive and a-arteether resistant. This constituted the direct evidence supporting our observation that DNA gyrase enzyme alone is involved in conferring a-arteether sensitivity to E.coli strain. […] DNA gyrase enzyme is essential for the bacterial growth. […]

[3] = system: gyr mutant strains of E.coli; settings: U.S. Pat. No. 6,127,405; cited from earlier work
E. coli CA8010 = experiment: Phenotype of strain (resistance or sensitivity); assay type: cell-based, Escherichia coli; set-up: key: R: resistance; S: sensitivity; settings: gyrA TCG-TTG(248), Ser-Leu 83
From the text: (§5) In order to develop an arteether resistant mutants from an arteether sensitive strains a reverse strategy was applied. Quinoline/fluoroquinolone (Q/FQs) resistant strains were developed spontaneously i.e. screening overnight log phase culture of the Quinolone/fluoroquinolone sensitive i.e. arteether resistant strain (E coli CA 8000) on the poison agar plate of the Q/FQs. The Q/FQ resistant mutants which appeared on the poison agar plates were first purified through single colony purification and then checked for their arteether sensitivity. These arteether sensitive mutants on the contrary when checked for their Q/Fqs resistance they show different level of Q/FQs resistance.
as §3

E. coli CA8007 = experiment: Phenotype of strain (resistance or sensitivity); assay type: cell-based, Escherichia coli; set-up: key: R: resistance; S: sensitivity; settings: gyrA TCG-TTG(248), Ser-Leu 83
From the text: as §5, §3

E. coli CA8001 = experiment: Phenotype of strain (resistance or sensitivity); assay type: cell-based, Escherichia coli; set-up: key: R: resistance; S: sensitivity; settings: gyrA GGT-TGT(241), Gly-Cys 81
From the text: as §5, §3

E. coli CA8012 = experiment: Phenotype of strain (resistance or sensitivity); assay type: cell-based, Escherichia coli; set-up: key: R: resistance; S: sensitivity; settings: gyrA GGT-GAT(242), Gly-Asp 81
From the text: as §5, §3

E. coli CA8006 = experiment: Phenotype of strain (resistance or sensitivity); assay type: cell-based, Escherichia coli; set-up: key: R: resistance; S: sensitivity; settings: gyrA TCG-TTG(248), Ser-Leu 83
From the text: as §5, §3

E. coli CA8009 = experiment: Phenotype of strain (resistance or sensitivity); assay type: cell-based, Escherichia coli; set-up: key: R: resistance; S: sensitivity; settings: gyrA TCG-TTG(248), Ser-Leu 83
From the text: as §5, §3

E. coli CA8003 = experiment: Phenotype of strain (resistance or sensitivity); assay type: cell-based, Escherichia coli; set-up: key: R: resistance; S: sensitivity; settings: gyrA GAC-GGC(260), Asp-Gly 87
From the text: as §5, §3

E. coli CA8002 = experiment: Phenotype of strain (resistance or sensitivity); assay type: cell-based, Escherichia coli; set-up: key: R: resistance; S: sensitivity; settings: gyrA GGT-TGT(241), Gly-Cys 81
From the text: as §5, §3

E. coli CA8005 = experiment: Phenotype of strain (resistance or sensitivity); assay type: cell-based, Escherichia coli; set-up: key: R: resistance; S: sensitivity; settings: gyrA GAC-GGC(260), Asp-Gly 87
From the text: as §5, §3

E. coli NK5819 = experiment: Phenotype of strain (resistance or sensitivity); assay type: cell-based, Escherichia coli; set-up: key to Phenotype: R: resistance; S: sensitivity
Method: as §2, §3

[4] = system: E.coli strains which do not carry gyr mutation (wild type strains); settings: U.S. Pat. No. 6,127,405; cited from earlier work
[5] = system: gyrA mutants of E.coli strain CA 8000 (nalidixic acid resistant colonies after NTG); experiment: Arteether sensitivity, single disk diffusion; assay type: cell-based, Escherichia coli; settings: isolated CA8000 gyrA mutants
Method: as §4

[6] = system: E.coli strain MTCC 482 (GyrB, defective in DNA gyrase B subunit); experiment: Arteether sensitivity, single disk diffusion; assay type: cell-based, Escherichia coli; settings: E.coli MTCC 482 (gyrB)
Method: as §4

E. coli ET8000 = experiment: Phenotype of strain (resistance or sensitivity); assay type: cell-based, Escherichia coli; set-up: key: R: resistance; S: sensitivity; settings: gyrA GAC-AAC(259), Asp-Asn 87
From the text: as §3

[7] = system: E. coli mutant strain Rev. 2; experiment: Phenotype of revertant (resistance or sensitivity); assay type: cell-based, Escherichia coli; set-up: key: R: resistance; S: sensitivity; settings: gyrA GAT-GGT(242), Asp-Gly 81
From the text: as §3
(§6) The commercially available strain E. coli DH5[…] (Stratagene, USA) is sensitive to […]-arteether but resistant to quinolone/fluoroquinolone due to a mutation at 87th aminoacid position of the gyr A protein (Aspartic acid of wild type is changed to Aspargine) with corresponding change in the codon GAC to AAC. This strain was used to screen […]-arteether resistant mutations. The observation was startling as the […]-arteether resistant mutants are the exact reversion at the 87th position of the aminoacid of gyrase A subunit i.e. Aspargine changed to aspartic acid, with corresponding change in the codon AAC to GAC.

[8] = system: E. coli mutant strain AR 9 CA8014; experiment: Phenotype of revertant (resistance or sensitivity); assay type: cell-based, Escherichia coli; set-up: key: R: resistance; S: sensitivity; settings: gyrA AAC-GAC(259), Asn-Asp 87
From the text: as §3, §6

[9] = system: E. coli mutant strain Rev 6; experiment: Phenotype of revertant (resistance or sensitivity); assay type: cell-based, Escherichia coli; set-up: key: R: resistance; S: sensitivity; settings: gyrA GAT-GGT(242), Asp-Gly 81
From the text: as §3, §6

[10] = system: E. coli mutant strain Rev. 3; experiment: Phenotype of revertant (resistance or sensitivity); assay type: cell-based, Escherichia coli; set-up: key: R: resistance; S: sensitivity; settings: gyrA GAT-GGT(242), Asp-Gly 81
From the text: as §3, §6

[11] = system: E. coli mutant strain Rev. 1; experiment: Phenotype of revertant (resistance or sensitivity); assay type: cell-based, Escherichia coli; set-up: key: R: resistance; S: sensitivity; settings: gyrA GAT-GGT(242), Asp-Gly 81
From the text: as §3, §6

[12] = system: E. coli mutant strain Rev 4; experiment: Phenotype of revertant (resistance or sensitivity); assay type: cell-based, Escherichia coli; set-up: key: R: resistance; S: sensitivity; settings: gyrA GAT-GGT(242), Asp-Gly 81
From the text: as §3, §6

[13] = system: E. coli mutant strain Rev 5; experiment: Phenotype of revertant (resistance or sensitivity); assay type: cell-based, Escherichia coli; set-up: key: R: resistance; S: sensitivity; settings: gyrA GAT-GGT(242), Asp-Gly 81
From the text: as §3, §6

malaria = settings: cited from earlier work
[14] = cited from earlier work
[15] = cited from earlier work; remark: listed apart in the source

CCO[C@@H]1O[C@@H]2O[C@]3(C)CC[C@H]4[C@H](C)CC[C@@H]([C@H]1C)[C@@]24OO3 [a-arteether, α-arteether]
Sensitivity or resistance [1]: invariably resistant | Phenotype (E. coli DH5α; DH5α, gyrA GAC-AAC(259), Asp-Asn 87): S | Sensitivity or resistance of the strain (words) (E. coli DH5α; listed as a isomer of arteether): able to inhibit the growth | Sensitivity or resistance of the strain (words) (E. coli DH5α; listed as α-arteether): sensitive | Sensitivity or resistance of the strain (words) (E. coli DH5α; listed as […]-arteether): sensitive | Sensitivity or resistance of transformants [2]: resistant | Inhibitory activity [3]: inhibitory | Phenotype (E. coli CA8010): S | Phenotype (E. coli CA8007): S | Phenotype (E. coli CA8001): S | Phenotype (E. coli CA8012): S | Phenotype (E. coli CA8006): S | Phenotype (E. coli CA8009): S | Phenotype (E. coli CA8003): S | Phenotype (E. coli CA8002): S | Phenotype (E. coli CA8005): S | Sensitivity or resistance of the strain (words) (E. coli NK5819; E.coli NK 5819 (GyrA mutant)): sensitive | Phenotype (E. coli NK5819; NK5819, gyrA GAC-TAC(259), Asp-Gly 87): S | Inhibitory activity [4]: ineffective | Arteether sensitivity [5]: sensitive | Arteether sensitivity [6]: susceptible | Phenotype (E. coli ET8000): S | Phenotype [7]: R | Phenotype [8]: R | Phenotype [9]: R | Phenotype [10]: R | Phenotype [11]: R | Phenotype [12]: R | Phenotype [13]: R

C[C@@H]1CC[C@H]2[C@@H](C)C(=O)O[C@@H]3O[C@@]4(C)CC[C@@H]1[C@]32OO4 [Artemisinin, artemisinin]
Plasmodicidal property (malaria): high plasmodicidal property | Solubility in most aprotic solvents ([14]; aprotic solvents): readily soluble | Solubility in water and oil ([14]; water and oil): poorly soluble | half-life [15]: short

From patent US7510836B2, “Alpha arteether resistance domain” (priority 2003, dated 2009)
